Reference: PubChem BioAssay (NCI)
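These data come from cells grown in 96-well plates and exposed to compound for 48 hours at five concentrations. TGI: concentration producing complete growth inhibition.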

Tests used:
Test in all cases: NCI-60 cell line screen, 48 h
HCC-2998 colon = test system: HCC-2998 colon
M14 melanoma = test system: M14 melanoma
MDA-MB-231 breast = test system: MDA-MB-231 breast
MDA-N = test system: MDA-N
MOLT-4 leukemia = test system: MOLT-4 leukemia
NCI-H23 lung = test system: NCI-H23 lung
NCI-H460 lung = test system: NCI-H460 lung
SNB-75 CNS = test system: SNB-75 CNS
UACC-257 melanoma = test system: UACC-257 melanoma
UO-31 renal = test system: UO-31 renal

SMILES | TGI (HCC-2998 colon) [µM] | TGI (M14 melanoma) [µM] | TGI (MDA-MB-231 breast) [µM] | TGI (MDA-N) [µM] | TGI (MOLT-4 leukemia) [µM] | TGI (NCI-H23 lung) [µM] | TGI (NCI-H460 lung) [µM] | TGI (SNB-75 CNS) [µM] | TGI (UACC-257 melanoma) [µM] | TGI (UO-31 renal) [µM]
COC(=O)C1=C(C(=O)OC)SC2(S1)C(C(=O)OC)=C(C(=O)OC)Sc1c2ssc1=O | 2.72 | 3.88 | 3.55 | 3.57 | 0.843 | 4.12 | 8.76 | 11.4 | 3.59 | 3.15
O=S1(=O)OCCOS(=O)(=O)C1C1c2ccccc2-c2ccccc21 | > 100 | > 100 | > 100 | > 100 | 48.2 | > 100 | 33.7 | 31.9 | > 100 | 93.2
COc1ccc2nc3c(nc2c1)C(C)(C)C=C3c1ccc(Br)cc1 | > 100 | > 100 | > 100 | > 100 | > 100 | – | > 100 | > 100 | > 100 | –
Clc1ccc(CCNCCNC2(c3cc4ccccc4s3)CCCCC2)cc1Cl | 2.82 | 3.97 | 3.24 | 3.33 | 4.53 | 3.38 | 3.16 | 3.72 | 3.29 | 3.46
O=C1C(Nc2ccc(S(=O)(=O)Nc3cnc4ccccc4n3)cc2)=CC(=Nc2ccc(S(=O)(=O)Nc3cnc4ccccc4n3)cc2)c2ccccc21 | 31.3 | 33.7 | 70.2 | 34.8 | 71.2 | 36.1 | 31.7 | 28.5 | > 65.2 | 30.4
COc1ccc2cc(CNCCOCCOCCNCc3ccc4cc(OC)ccc4c3)ccc2c1 | 0.319 | 0.687 | 2.91 | 2.35 | 2.44 | 3.02 | 1.51 | 3.03 | 3.18 | 2.61
C1=Nc2ccc(cc2)-c2ccc(cc2)N=Cc2ccccc2OCc2cccc(n2)COc2ccccc21 | > 100 | > 100 | > 66.3 | > 100 | > 100 | 45.9 | > 100 | 12.1 | > 100 | > 100
Cc1cc2nc3c(C)c4ccccc4c(C)n3c2cc1C | > 10 | > 10 | 7.51 | 7.8 | > 10 | > 10 | 4.84 | > 10 | > 10 | –
COc1ccc(C2=Nn3c(nc4sc5c(c4c3=O)CCCC5)SC2)cc1 | > 100 | – | > 100 | > 100 | > 100 | > 100 | > 100 | – | > 100 | > 100
CN1CN(c2ccccc2)C2(CCN(C(=O)OC(C)(C)C)CC2)C1=O | > 100 | > 100 | > 100 | > 100 | > 100 | > 100 | > 100 | > 100 | > 100 | > 100
Cn1c(SCc2ccc([N+](=O)[O-])cc2)nnc1C12CC3CC(CC(C3)C1)C2 | > 10 | > 10 | > 10 | > 10 | > 10 | > 10 | > 10 | > 10 | – | > 10
Cc1ccnc2[nH]c(-c3ccc(Cl)cc3)cc(=O)c12 | > 100 | > 100 | > 100 | 4.59 | > 100 | > 100 | > 100 | 25.8 | > 100 | > 100
CC(=O)O[C@H]1C(=O)[C@@]2(C)C(C(OC(=O)c3ccccc3)[C@]3(O)CC(OC(=O)C(O)C(NC(=O)c4cccc(Cl)c4)c4ccccc4)C(C)=C1C3(C)C)[C@]1(OC(C)=O)CO[C@@H]1C[C@@H]2O (stereo partly drawn) | 4.1 | > 10 | 8.72 | 0.334 | > 10 | > 10 | > 10 | 8.9 | > 10 | –
O=c1oc2c(Cl)cc(Cl)cc2cc1-c1cn2c(n1)sc1ccccc12 | 95 | > 100 | > 100 | > 100 | 52 | > 100 | > 100 | > 100 | > 100 | > 100
CCc1c[n+]2c(cc1C1=CN3c4ccccc4[C@]45CCN6C/C(=C/CO)[C@H](C[C@H]64)[C@@H]([C@@H]1O)[C@H]35)-c1[nH]c3ccccc3c1CC2 | > 50 | > 50 | > 50 | > 50 | > 50 | > 50 | > 50 | > 50 | > 50 | > 50
Nc1nc(Cl)cc(Oc2ccc(Cl)cc2)n1 | > 100 | > 100 | > 100 | > 100 | > 100 | > 100 | > 100 | > 100 | > 100 | > 100
C#CCn1c(=O)c2cc(OC)c(OC)cc2n(CC#C)c1=O | > 10 | > 10 | > 10 | > 10 | > 10 | > 10 | > 10 | > 10 | > 10 | > 10
CN1C(=O)c2c(c3c4ccccc4n(C)c3c3c2c2ccccc2n3C)C1=O | > 100 | > 100 | > 100 | > 100 | > 100 | > 100 | > 100 | > 100 | > 100 | > 100
Clc1cccc(C=NC23CC4CC(CC(C4)C2)C3)c1Cl | > 10 | > 10 | > 10 | > 10 | – | > 10 | > 10 | > 10 | > 10 | –
CSCCC(NOC(=O)Cc1ccccc1)P(=O)(O)c1ccccc1 (stereo not drawn) | > 100 | > 100 | > 100 | > 100 | > 100 | > 100 | > 100 | > 100 | > 100 | > 100
C=C1C(O)C2OC(=O)C(=C)C2C(OC(=O)/C(C)=C/C)CC2(C)OC2C2OC12 (stereo not drawn) | 21.6 | > 100 | 37.9 | 6.02 | 31.2 | 35.3 | 91.6 | > 100 | > 100 | 81.3
COc1cc(/C=[N+](\[O-])c2ccccc2Cl)ccc1OC(=S)S | > 100 | > 100 | > 100 | > 100 | > 100 | > 100 | > 100 | 63.6 | > 100 | > 100

SMILES | TGI (HCC-2998 colon) [µM] | TGI (M14 melanoma) [µM] | TGI (MDA-MB-231 breast) [µM] | TGI (MDA-N) [µM] | TGI (MOLT-4 leukemia) [µM] | TGI (NCI-H23 lung) [µM] | TGI (NCI-H460 lung) [µM] | TGI (SNB-75 CNS) [µM] | TGI (UACC-257 melanoma) [µM] | TGI (UO-31 renal) [µM]
CCOC(=O)/C(C(N)=O)=C(/O)c1cnccn1 | > 100 | > 100 | > 100 | > 100 | > 100 | > 100 | > 100 | > 100 | > 100 | > 100
O=C(NC1CCCCC1)N1CCNC1=S | > 100 | > 100 | 8.05 | > 100 | > 100 | > 100 | > 100 | > 100 | > 100 | > 100
Cc1ccc(S(=O)(=O)N(CC(O)COc2ccccc2)c2ccccc2Cl)cc1 (stereo not drawn) | 37 | 31 | 29.3 | 33.2 | 52.9 | 31.1 | 36.2 | 41.7 | 29.3 | 24.8
CCOC(=O)C(NS(=O)(=O)c1ccccc1)(C(F)(F)F)P(=O)(OCC(C)C)OCC(C)C (stereo not drawn) | > 100 | > 100 | > 100 | > 100 | > 100 | > 100 | > 100 | > 100 | > 100 | > 100
CN(C)CC(O)CNC(=O)Nc1ccccc1 (stereo not drawn) | > 100 | > 100 | > 100 | > 100 | – | > 100 | > 100 | > 100 | > 100 | > 100
COc1cc2ccnc3c2c(c1OC)N(C)C=C3 | 33.8 | 68.8 | 80.6 | 36.1 | > 100 | 47 | 29 | > 100 | > 100 | 33.1
COc1ccc(/C=C2\CCC(C)(CN(C)C)C2=O)cc1Br (stereo not drawn) | 35.8 | 35.1 | 68.1 | 41.2 | 58 | > 95.1 | > 57.2 | 76.3 | 36.6 | 33.3
O=C(N/N=C/c1ccc(O)cc1)NNCCO | > 100 | > 100 | > 100 | > 100 | > 100 | > 100 | > 100 | > 100 | > 100 | > 100
CNC(=O)/C(C#N)=C(\N)N1CCCC1 | > 100 | – | > 100 | > 100 | > 100 | > 100 | > 100 | – | – | > 100
O=C(NC12CC3CC(CC(C3)C1)C2)n1cnc2c(Cl)ncnc21 | 38.9 | 50.7 | > 100 | 45.9 | 52.2 | 65.4 | 75.8 | 73.8 | > 100 | > 100
CCCCCCCCC/C=C1/CC(CO)(COC(=O)C2CCCCC2)OC1=O (stereo not drawn) | > 100 | > 100 | > 100 | > 100 | > 100 | > 100 | > 100 | > 100 | > 100 | > 100
OC[C@@H](O)[C@H](O)[C@H](O)[C@@H](O)C1SCCCS1 | > 100 | > 100 | > 100 | > 100 | > 100 | > 100 | > 100 | > 100 | > 100 | > 100
CCOP(=O)(OCC)C(Cc1cn(S(=O)(=O)c2ccc(C)cc2)cn1)C(=O)O (stereo not drawn) | > 100 | > 100 | > 100 | > 100 | > 100 | > 100 | > 100 | > 100 | – | > 100
COc1cc2c(cc1OC)C/C(=N\O)c1cc(OC)c(OC)cc1/C=C\2 | 31.8 | 27.2 | > 29.3 | > 100 | > 85 | > 100 | > 29.4 | 78.1 | > 48.8 | > 69.7
COc1cc([C@@H]2c3cc4c(cc3[C@H](OC3OC5COC(C(C)C)OC5C(O)C3O)C3COC(=O)[C@@H]32)OCO4)cc(OC)c1OC (stereo partly drawn) | 21.7 | > 33 | 19.2 | 3.53 | > 68.4 | 16.5 | 7.18 | 96.8 | 22.6 | 42.1
COC(=O)c1cc(NC(=O)Cn2c3ccccc3c3ccccc32)cn1C | > 100 | > 100 | 48.8 | > 100 | > 100 | > 100 | > 100 | – | > 100 | > 100
CCc1cc2c(cc1O)CC[C@@H]1[C@@H]2CC[C@]2(C)[C@@H](O)CC[C@@H]12 | 24 | 19.8 | 21.4 | 8.62 | 20 | 20.6 | 20.9 | 7.59 | 20 | 21.8
O=C(O)C(=Cc1ccc(-c2ccc([N+](=O)[O-])cc2)o1)C(=O)O | > 100 | > 100 | > 100 | > 100 | > 100 | > 100 | > 100 | > 100 | > 100 | > 100
Cc1ccc2c(=O)cc(-c3ccccc3)[nH]c2n1 | 4.68 | – | 22.8 | 0.0999 | > 28.3 | 16.8 | > 100 | > 100 | > 43.4 | > 81.8
O=C(O)Cn1cnc2c(=O)[nH]c(Nc3ccccc3)nc21 | > 100 | > 100 | > 100 | > 100 | > 100 | > 100 | > 100 | > 100 | > 100 | –
CC(C)(C)c1ccc(OCCOc2ccc(C(C)(C)C)cc2NC=O)c(NC=O)c1 | 23.5 | 20.7 | 40.5 | 27.3 | 19.1 | 40.7 | 34.3 | > 78.7 | 27.4 | 30.9
